These results are taken from ChEMBL document CHEMBL1146281, “Synthesis and evaluation of peptidic maleimides as transglutaminase inhibitors” (Bioorg Med Chem Lett, 2007).

The species named for this experiment is Cavia porcellus. The experiment is described as follows: Ratio of Kinactivation to KI of guinea pig recombinant liver TGase expressed in Escherichia coli.

Consider `O=C(N[C@@H](CCCN1C(=O)C=CC1=O)C(=O)OCc1ccccc1)OCc1ccccc1`, for which the Ratio was found to be 6.26 mM⁻¹ min⁻¹. Then `O=C(N[C@@H](CCCCN1C(=O)C=CC1=O)C(=O)OCc1ccccc1)OCc1ccccc1`, with 17.1 mM⁻¹ min⁻¹. Then `O=C(N[C@@H](CCN1C(=O)C=CC1=O)C(=O)OCc1ccccc1)OCc1ccccc1`, with 0.67 mM⁻¹ min⁻¹; and `COC(=O)CNC(=O)[C@H](CCN1C(=O)C=CC1=O)NC(=O)OCc1ccccc1`, with 0.28 mM⁻¹ min⁻¹. In the case of `COC(=O)CNC(=O)[C@H](CCCCN1C(=O)C=CC1=O)NC(=O)OCc1ccccc1`, the Ratio is 0.83 mM⁻¹ min⁻¹. Then `COC(=O)CNC(=O)[C@H](CCCN1C(=O)C=CC1=O)NC(=O)OCc1ccccc1`, with 0.43 mM⁻¹ min⁻¹.
